Converted amounts (≈) assume the structure as drawn. Read-outs that look alike come from different tables or passages of the source. Where a SMILES comes first, the peptide text is derived from it. Where no end group is shown, it is not given here. The star is where a group is joined. Deoxycholoyl = C[C@H](CCC(=O)*)[C@H]1CC[C@H]2[C@@H]3CC[C@@H]4C[C@H](O)CC[C@]4(C)[C@H]3C[C@H](O)[C@]12C; Benzoyl(4-Ph) = O=C(c1ccc(-c2ccccc2)cc1)*; Butanoyl(4-Ph) = O=C(CCCc1ccccc1)*; X2 = O=C(C#Cc1ccccc1)* Bounds are passed on as bounds.

The test system of series [1] is Klebsiella aerogenes ATCC 13048. The format is cell-based. The following applies: ATCC 13048, 18 h. Summed up:
(§1)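 Using Mueller–Hinton broth and an inoculum checked at 600 nm (0.5 × 10^5 CFU/mL), bacteria faced peptide dilutions from 1 to 512 µg/mL for 18 h at 37 °C. Lowest concentration without visible growth defined the MIC, measured in triplicate alongside growth and sterility controls.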

The test system of series [2] is Pseudomonas aeruginosa ATCC 9027. The series is classed as cell-based. Particulars: ATCC 9027, 18 h. The gist of the method:
as §1

Series [3] concerns Klebsiella pneumoniae ATCC 700603. The series is classed as cell-based. Particulars: ATCC 700603, 18 h. The gist of the method:
as §1

The test system of series [4] is Enterococcus faecium ATCC 700221. The series is classed as cell-based. The following applies: ATCC 700221, 18 h. Summed up:
as §1

In another series the test system is S. aureus ATCC 25923. The format is cell-based, Staphylococcus aureus. Particulars: ATCC 25923, 18 h. Summed up: as §1
Series [5] has as its system S. aureus ATCC 33591 (MRSA). The series is classed as cell-based, Staphylococcus aureus. The following applies: ATCC 33591, 18 h. The gist of the method:
as §1

Another series deals with S. aureus ATCC 9144. The series is classed as cell-based, Staphylococcus aureus. Particulars: ATCC 9144, 18 h. The gist of the method: as §1
Another series relates to S. aureus ATCC 12598. The format is cell-based, Staphylococcus aureus. The following applies: ATCC 12598, 18 h. Summed up: as §1
The subject of the next series is S. aureus ATCC 6538. The format is cell-based, Staphylococcus aureus. Particulars: ATCC 6538, 18 h. The gist of the method:
as §1

For series [6], the system named is human red blood cells (hRBCs). In words: Hemolysis assay. Particulars: 4% (v/v) erythrocytes in PBS, peptides 1–512 µg/mL, 1 h at 37 °C, hemoglobin at 540 nm.
Where [7] appears, read: fresh batch of blood (footnote a).
The mark [8] stands for this setting: 100% = 1% Triton-X 100, ≥ means less than 5% hemolysis up to 512 µg/mL.

`CC[C@H](C)[C@H](NC(=O)[C@H](CCCNC(=N)N)NC(=O)[C@H](CCC(N)=O)NC(=O)[C@@H](NC(=O)[C@@H](NC(=O)[C@H](CCCNC(=N)N)NC(=O)[C@H](CCCCN)NC(=O)CCCc1ccccc1)[C@@H](C)CC)C(C)C)C(=O)N[C@@H](CCCCN)C(=O)N[C@@H](CC(=O)O)C(=O)N[C@@H](Cc1ccccc1)C(=O)N[C@@H](CC(C)C)C(=O)N[C@@H](CCCNC(=N)N)C(N)=O` [XVIII, 4-Phenylbutanoic acid-KR12-NH2] ({Butanoyl(4-Ph)}-KRIVQRIKDFLR-NH2): under “18 h”, the “MIC A. baumannii” value was 4 µg/mL (≈ 2.33 µM). For the same molecule, the “MIC K. aerogenes” value in series [1] is given as 32 µg/mL (≈ 18.6 µM). The “MIC P. aeruginosa” value in series [2] worked out at 64 µg/mL (≈ 37.3 µM). Moreover, the “MIC K. pneumoniae” value in [3] was found to be 16 µg/mL (≈ 9.32 µM). The “MIC E. faecium” value in [4] is recorded as 8 µg/mL (≈ 4.66 µM). For the same molecule, the “MIC S. aureus 25923” value with S. aureus ATCC 25923 was found to be 32 µg/mL (≈ 18.6 µM). Besides, in series [5], the “MIC S. aureus 33591” value amounted to 16 µg/mL (≈ 9.32 µM). The “MIC S. aureus 9144” value with S. aureus ATCC 9144 amounted to 8 µg/mL (≈ 4.66 µM). In addition, the “MIC S. aureus 12598” value in the series with S. aureus ATCC 12598 stood at 32 µg/mL (≈ 18.6 µM). Besides, the “MIC S. aureus 6538” value with S. aureus ATCC 6538 was 32 µg/mL (≈ 18.6 µM). For the same molecule, the “MHC5 (minimum hemolytic concentration causing 5% hemolysis of hRBCs)” value in series [6] (setting [7]) is 128 ^a µg/mL.
Consider `CC[C@H](C)[C@H](NC(=O)[C@H](CCCNC(=N)N)NC(=O)[C@H](CCC(N)=O)NC(=O)[C@@H](NC(=O)[C@@H](NC(=O)[C@H](CCCNC(=N)N)NC(=O)[C@H](CCCCN)NC(=O)C#Cc1ccccc1)[C@@H](C)CC)C(C)C)C(=O)N[C@@H](CCCCN)C(=O)N[C@@H](CC(=O)O)C(=O)N[C@@H](Cc1ccccc1)C(=O)N[C@@H](CC(C)C)C(=O)N[C@@H](CCCNC(=N)N)C(N)=O` [XX, Phenylpropiolic acid-KR12-NH2] (X2-KRIVQRIKDFLR-NH2), for which the “MIC A. baumannii” value (18 h) was 32 µg/mL (≈ 18.8 µM). For the same molecule, the “MIC K. aerogenes” value in [1] amounted to 16 µg/mL (≈ 9.42 µM). Also, the “MIC P. aeruginosa” value in series [2] is reported as 64 µg/mL (≈ 37.7 µM). The “MIC K. pneumoniae” value in series [3] stood at 32 µg/mL (≈ 18.8 µM). Besides, the “MIC E. faecium” value in [4] is 4 µg/mL (≈ 2.35 µM). For the same molecule, the “MIC S. aureus 25923” value against S. aureus ATCC 25923 is 128 µg/mL (≈ 75.3 µM). Moreover, the “MIC S. aureus 33591” value in [5] came to 32 µg/mL (≈ 18.8 µM). In addition, in the series on S. aureus ATCC 9144, the “MIC S. aureus 9144” value came out at 16 µg/mL (≈ 9.42 µM). In the series with S. aureus ATCC 12598, the “MIC S. aureus 12598” value is recorded as 32 µg/mL (≈ 18.8 µM). Moreover, the “MIC S. aureus 6538” value against S. aureus ATCC 6538 was 8 µg/mL (≈ 4.71 µM). In addition, in [6] (setting [8]), the “MHC5 (minimum hemolytic concentration causing 5% hemolysis of hRBCs)” value worked out at 256 µg/mL.
Turning to `CC[C@H](C)[C@H](NC(=O)[C@H](CCCNC(=N)N)NC(=O)[C@H](CCC(N)=O)NC(=O)[C@@H](NC(=O)[C@@H](NC(=O)[C@H](CCCNC(=N)N)NC(=O)[C@H](CCCCN)NC(=O)c1ccc(-c2ccccc2)cc1)[C@@H](C)CC)C(C)C)C(=O)N[C@@H](CCCCN)C(=O)N[C@@H](CC(=O)O)C(=O)N[C@@H](Cc1ccccc1)C(=O)N[C@@H](CC(C)C)C(=O)N[C@@H](CCCNC(=N)N)C(N)=O` [XXI, 4-Phenylbenzoic acid-KR12-NH2] ({Benzoyl(4-Ph)}-KRIVQRIKDFLR-NH2), the “MIC A. baumannii” value (18 h) is given as 8 µg/mL (≈ 4.57 µM). Also, the “MIC K. aerogenes” value in series [1] came out at 4 µg/mL (≈ 2.28 µM). Moreover, in series [2], the “MIC P. aeruginosa” value turned out to be 16 µg/mL (≈ 9.14 µM). Further, in series [3], the “MIC K. pneumoniae” value turned out to be 8 µg/mL (≈ 4.57 µM). The “MIC E. faecium” value in series [4] is reported as 2 µg/mL (≈ 1.14 µM). In the series on S. aureus ATCC 25923, the “MIC S. aureus 25923” value was determined as 8 µg/mL (≈ 4.57 µM). Besides, the “MIC S. aureus 33591” value in [5] was 4 µg/mL (≈ 2.28 µM). Also, the “MIC S. aureus 9144” value in the series on S. aureus ATCC 9144 is reported as 4 µg/mL (≈ 2.28 µM). Also, the “MIC S. aureus 12598” value in the series on S. aureus ATCC 12598 was 4 µg/mL (≈ 2.28 µM). Besides, in the series with S. aureus ATCC 6538, the “MIC S. aureus 6538” value was found to be 2 µg/mL (≈ 1.14 µM). Moreover, the “MHC5 (minimum hemolytic concentration causing 5% hemolysis of hRBCs)” value in [6] (setting [8]) amounted to 32 µg/mL.
Turning to `CC[C@H](C)[C@H](NC(=O)[C@H](CCCNC(=N)N)NC(=O)[C@H](CCC(N)=O)NC(=O)[C@@H](NC(=O)[C@@H](NC(=O)[C@H](CCCNC(=N)N)NC(=O)[C@H](CCCCN)NC(=O)CC[C@@H](C)[C@H]1CC[C@H]2[C@@H]3CC[C@@H]4C[C@H](O)CC[C@]4(C)[C@H]3C[C@H](O)[C@]12C)[C@@H](C)CC)C(C)C)C(=O)N[C@@H](CCCCN)C(=O)N[C@@H](CC(=O)O)C(=O)N[C@@H](Cc1ccccc1)C(=O)N[C@@H](CC(C)C)C(=O)N[C@@H](CCCNC(=N)N)C(N)=O` [XXII, Deoxycholic acid-KR12-NH2] (Deoxycholoyl-KRIVQRIKDFLR-NH2), the “MIC A. baumannii” value (Mueller–Hinton broth, 0.5 × 10^5 CFU/mL, peptides 1–512 µg/mL, 18 h at 37 °C, triplicate) was 8 µg/mL (≈ 4.11 µM). Moreover, the “MIC K. aerogenes” value in series [1] was 128 µg/mL (≈ 65.8 µM). In addition, the “MIC P. aeruginosa” value in series [2] is recorded as 128 µg/mL (≈ 65.8 µM). Further, the “MIC K. pneumoniae” value in series [3] is given as 64 µg/mL (≈ 32.9 µM). Moreover, the “MIC E. faecium” value in series [4] turned out to be 2 µg/mL (≈ 1.03 µM). Besides, in the series with S. aureus ATCC 25923, the “MIC S. aureus 25923” value is 32 µg/mL (≈ 16.4 µM). For the same molecule, the “MIC S. aureus 33591” value in [5] was determined as 256 µg/mL (≈ 132 µM). The “MIC S. aureus 9144” value against S. aureus ATCC 9144 turned out to be 8 µg/mL (≈ 4.11 µM). For the same molecule, the “MIC S. aureus 12598” value against S. aureus ATCC 12598 was found to be 8 µg/mL (≈ 4.11 µM). Besides, in the series on S. aureus ATCC 6538, the “MIC S. aureus 6538” value turned out to be 4 µg/mL (≈ 2.06 µM). Further, the “MHC5 (minimum hemolytic concentration causing 5% hemolysis of hRBCs)” value in [6] (setting [7]) is given as 8 µg/mL.
As to KRIVQRIKDFLR-NH2 [I, KR12-NH2], the “MIC A. baumannii” value (18 h) was 256 µg/mL. The “MIC K. aerogenes” value in series [1] is recorded as more than 512 µg/mL. The “MIC P. aeruginosa” value in series [2] came out at 128 µg/mL. Moreover, the “MIC K. pneumoniae” value in [3] is given as more than 512 µg/mL. For the same molecule, the “MIC E. faecium” value in series [4] is on record as 128 µg/mL. Also, the “MIC S. aureus 25923” value against S. aureus ATCC 25923 is listed as more than 512 µg/mL. Moreover, the “MIC S. aureus 33591” value in [5] is reported as more than 512 µg/mL. In addition, in the series on S. aureus ATCC 9144, the “MIC S. aureus 9144” value is given as more than 512 µg/mL. Also, the “MIC S. aureus 12598” value in the series with S. aureus ATCC 12598 is recorded as more than 512 µg/mL. Also, in the series with S. aureus ATCC 6538, the “MIC S. aureus 6538” value was 512 µg/mL. The “MHC5 (minimum hemolytic concentration causing 5% hemolysis of hRBCs)” value in series [6] (setting [8]) is not below 512 µg/mL.
